Data as given in US12297194B2, “N2-phenylpyrimidine-2,4-diamine compounds, and preparation methods and methods of use thereof” (BRIDGE BIOTHERAPEUTICS, INC., priority 2021, dated 2025).

What was measured:
Format in all cases: cell-based, murine
[1] = molecular target: Ba/F3 EGFR L858R/T790M/C797S mutants (Homo sapiens, UniProt P00533, T790M/C797S/L858R, cells depend on it); assay: CellTiter-Glo cell viability, Ba/F3 EGFR L858R/T790M/C797S cells; conditions: 72 hours, read-out: Ba/F3 EGFR mutant cell (IC50, nM) L/T/C
Chain of Ba/F3 EGFR L858R/T790M/C797S mutants (P00533 whole entry T790M/C797S/L858R): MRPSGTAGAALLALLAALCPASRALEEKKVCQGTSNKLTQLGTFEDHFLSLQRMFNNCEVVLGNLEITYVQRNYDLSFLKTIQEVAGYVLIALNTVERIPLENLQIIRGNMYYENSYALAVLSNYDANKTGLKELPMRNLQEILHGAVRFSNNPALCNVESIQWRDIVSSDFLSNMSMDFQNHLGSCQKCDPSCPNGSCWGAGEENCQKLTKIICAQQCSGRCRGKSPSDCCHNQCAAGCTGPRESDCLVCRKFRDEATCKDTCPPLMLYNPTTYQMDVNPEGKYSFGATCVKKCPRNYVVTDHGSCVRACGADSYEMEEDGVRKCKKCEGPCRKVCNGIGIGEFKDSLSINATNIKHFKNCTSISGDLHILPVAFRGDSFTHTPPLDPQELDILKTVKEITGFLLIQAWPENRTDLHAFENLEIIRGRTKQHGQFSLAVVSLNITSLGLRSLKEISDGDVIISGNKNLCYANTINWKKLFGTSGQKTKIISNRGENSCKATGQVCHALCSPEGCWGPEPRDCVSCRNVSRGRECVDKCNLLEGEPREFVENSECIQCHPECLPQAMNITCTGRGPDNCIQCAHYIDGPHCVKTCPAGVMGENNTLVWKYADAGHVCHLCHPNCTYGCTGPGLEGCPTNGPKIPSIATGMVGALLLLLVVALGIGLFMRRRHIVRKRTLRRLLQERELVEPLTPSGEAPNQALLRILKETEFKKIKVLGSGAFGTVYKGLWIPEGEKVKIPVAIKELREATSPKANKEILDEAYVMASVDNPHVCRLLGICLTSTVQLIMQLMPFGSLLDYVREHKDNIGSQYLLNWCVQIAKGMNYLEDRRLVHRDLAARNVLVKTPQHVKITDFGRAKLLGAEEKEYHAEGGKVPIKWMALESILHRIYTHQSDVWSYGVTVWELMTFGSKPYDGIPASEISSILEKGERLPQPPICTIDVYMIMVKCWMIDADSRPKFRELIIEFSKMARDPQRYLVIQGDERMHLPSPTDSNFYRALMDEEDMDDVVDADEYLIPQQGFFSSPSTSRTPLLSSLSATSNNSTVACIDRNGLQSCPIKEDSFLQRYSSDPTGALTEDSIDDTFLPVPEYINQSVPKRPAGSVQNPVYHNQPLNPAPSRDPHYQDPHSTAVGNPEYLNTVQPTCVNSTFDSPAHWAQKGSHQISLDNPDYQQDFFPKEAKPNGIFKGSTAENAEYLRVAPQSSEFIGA
Summary of the method: (§1)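 Luminescent ATP read-out (CellTiter-Glo) after 72 h compound exposure, 0–2000 nM dilution series. Cells plated 2500/well, dosed 24 h post-seeding. IC50 from luminescence curves.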

[2] = molecular target: Ba/F3 EGFR L858R/C797S mutants (Homo sapiens, UniProt P00533, C797S/L858R, cells depend on it); assay: CellTiter-Glo cell viability, Ba/F3 EGFR L858R/C797S cells; conditions: 72 hours, read-out: Ba/F3 EGFR mutant cell (IC50, nM) L/C
Chain of Ba/F3 EGFR L858R/C797S mutants (P00533 whole entry C797S/L858R): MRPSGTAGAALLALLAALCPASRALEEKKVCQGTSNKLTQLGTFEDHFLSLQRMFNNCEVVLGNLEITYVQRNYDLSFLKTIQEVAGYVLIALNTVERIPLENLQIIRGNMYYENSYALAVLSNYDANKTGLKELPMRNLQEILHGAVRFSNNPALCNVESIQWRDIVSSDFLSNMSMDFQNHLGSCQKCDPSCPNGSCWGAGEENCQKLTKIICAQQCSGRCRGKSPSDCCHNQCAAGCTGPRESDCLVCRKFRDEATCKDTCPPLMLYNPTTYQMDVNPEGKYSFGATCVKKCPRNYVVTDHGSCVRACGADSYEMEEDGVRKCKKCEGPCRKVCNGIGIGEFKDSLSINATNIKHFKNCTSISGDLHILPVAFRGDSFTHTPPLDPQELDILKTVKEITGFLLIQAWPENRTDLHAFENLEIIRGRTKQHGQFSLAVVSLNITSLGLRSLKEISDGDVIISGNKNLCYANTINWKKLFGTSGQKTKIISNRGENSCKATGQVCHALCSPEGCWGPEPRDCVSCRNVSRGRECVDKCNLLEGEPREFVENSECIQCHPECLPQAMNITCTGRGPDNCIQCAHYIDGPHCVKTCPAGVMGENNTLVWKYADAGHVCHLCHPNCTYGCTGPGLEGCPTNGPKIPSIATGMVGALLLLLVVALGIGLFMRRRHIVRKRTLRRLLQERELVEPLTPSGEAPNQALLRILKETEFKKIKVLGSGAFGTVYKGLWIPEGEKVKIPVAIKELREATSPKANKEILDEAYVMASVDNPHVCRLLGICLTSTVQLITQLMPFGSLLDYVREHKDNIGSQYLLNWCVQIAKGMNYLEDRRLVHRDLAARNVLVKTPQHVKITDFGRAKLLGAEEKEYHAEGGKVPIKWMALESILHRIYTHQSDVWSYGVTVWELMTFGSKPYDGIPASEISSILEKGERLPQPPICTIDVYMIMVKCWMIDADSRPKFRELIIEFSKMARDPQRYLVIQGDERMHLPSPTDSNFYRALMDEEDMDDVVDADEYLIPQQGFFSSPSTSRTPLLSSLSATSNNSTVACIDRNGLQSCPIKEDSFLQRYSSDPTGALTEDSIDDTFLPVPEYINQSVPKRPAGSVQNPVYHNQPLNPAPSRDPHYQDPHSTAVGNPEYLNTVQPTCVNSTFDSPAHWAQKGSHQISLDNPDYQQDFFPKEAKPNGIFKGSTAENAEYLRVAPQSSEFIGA
Summary of the method: as §1

[3] = molecular target: Ba/F3 EGFR Del19/C797S mutants (Homo sapiens, UniProt P00533, C797S, cells depend on it, form not given); assay: CellTiter-Glo cell viability, Ba/F3 EGFR Del19/C797S cells; conditions: 72 hours, read-out: Ba/F3 EGFR mutant cell (IC50, nM) D/C
Chain of Ba/F3 EGFR Del19/C797S mutants (P00533 with tags, fused parts or gaps DEL746-750/C797S, form open): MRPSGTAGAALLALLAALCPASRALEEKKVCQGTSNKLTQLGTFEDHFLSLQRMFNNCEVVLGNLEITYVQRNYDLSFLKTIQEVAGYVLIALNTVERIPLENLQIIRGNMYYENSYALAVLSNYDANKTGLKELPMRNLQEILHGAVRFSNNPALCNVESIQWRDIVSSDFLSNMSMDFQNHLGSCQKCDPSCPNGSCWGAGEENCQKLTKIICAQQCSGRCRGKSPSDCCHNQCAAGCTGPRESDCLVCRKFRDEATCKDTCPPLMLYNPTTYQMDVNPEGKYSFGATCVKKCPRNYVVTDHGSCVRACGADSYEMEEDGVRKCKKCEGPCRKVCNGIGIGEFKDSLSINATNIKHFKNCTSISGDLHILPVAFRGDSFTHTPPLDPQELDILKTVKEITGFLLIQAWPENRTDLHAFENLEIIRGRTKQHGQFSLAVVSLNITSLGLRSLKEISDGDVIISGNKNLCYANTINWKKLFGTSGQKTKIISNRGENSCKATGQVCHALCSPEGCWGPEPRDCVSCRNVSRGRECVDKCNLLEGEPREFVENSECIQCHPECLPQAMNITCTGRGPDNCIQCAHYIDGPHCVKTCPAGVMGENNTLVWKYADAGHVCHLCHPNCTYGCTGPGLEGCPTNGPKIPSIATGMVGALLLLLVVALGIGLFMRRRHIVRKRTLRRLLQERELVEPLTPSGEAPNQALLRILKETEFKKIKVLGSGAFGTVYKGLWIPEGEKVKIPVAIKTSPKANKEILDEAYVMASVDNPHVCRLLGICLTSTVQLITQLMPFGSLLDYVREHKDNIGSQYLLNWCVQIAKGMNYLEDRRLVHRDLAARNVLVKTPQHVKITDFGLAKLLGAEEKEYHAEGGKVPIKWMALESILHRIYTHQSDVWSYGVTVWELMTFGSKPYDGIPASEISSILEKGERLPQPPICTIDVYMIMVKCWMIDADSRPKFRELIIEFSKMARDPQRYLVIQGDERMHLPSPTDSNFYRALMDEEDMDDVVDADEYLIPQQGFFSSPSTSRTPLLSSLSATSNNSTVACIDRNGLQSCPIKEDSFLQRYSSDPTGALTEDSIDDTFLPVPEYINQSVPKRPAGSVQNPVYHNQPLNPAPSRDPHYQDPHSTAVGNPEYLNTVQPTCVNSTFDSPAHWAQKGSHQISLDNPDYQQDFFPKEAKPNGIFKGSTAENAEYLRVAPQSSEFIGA
Summary of the method: as §1

Ba/F3 EGFR Wild-type = Ba/F3 EGFR Wild-type (Homo sapiens, UniProt P00533); assay: CellTiter-Glo cell viability, Ba/F3 EGFR wild-type cells; conditions: 72 hours, read-out: Ba/F3 EGFR mutant cell (IC50, nM) WT
Summary of the method: as §1

[4] = molecular target: Ba/F3 EGFR Del19/T790M mutants (Homo sapiens, UniProt P00533, T790M, cells depend on it, form not given); assay: CellTiter-Glo cell viability, Ba/F3 EGFR Del19/T790M cells; conditions: 72 hours, read-out: Ba/F3 EGFR mutant cell (IC50, nM) D/T
Chain of Ba/F3 EGFR Del19/T790M mutants (P00533 with tags, fused parts or gaps DEL746-750/T790M, form open): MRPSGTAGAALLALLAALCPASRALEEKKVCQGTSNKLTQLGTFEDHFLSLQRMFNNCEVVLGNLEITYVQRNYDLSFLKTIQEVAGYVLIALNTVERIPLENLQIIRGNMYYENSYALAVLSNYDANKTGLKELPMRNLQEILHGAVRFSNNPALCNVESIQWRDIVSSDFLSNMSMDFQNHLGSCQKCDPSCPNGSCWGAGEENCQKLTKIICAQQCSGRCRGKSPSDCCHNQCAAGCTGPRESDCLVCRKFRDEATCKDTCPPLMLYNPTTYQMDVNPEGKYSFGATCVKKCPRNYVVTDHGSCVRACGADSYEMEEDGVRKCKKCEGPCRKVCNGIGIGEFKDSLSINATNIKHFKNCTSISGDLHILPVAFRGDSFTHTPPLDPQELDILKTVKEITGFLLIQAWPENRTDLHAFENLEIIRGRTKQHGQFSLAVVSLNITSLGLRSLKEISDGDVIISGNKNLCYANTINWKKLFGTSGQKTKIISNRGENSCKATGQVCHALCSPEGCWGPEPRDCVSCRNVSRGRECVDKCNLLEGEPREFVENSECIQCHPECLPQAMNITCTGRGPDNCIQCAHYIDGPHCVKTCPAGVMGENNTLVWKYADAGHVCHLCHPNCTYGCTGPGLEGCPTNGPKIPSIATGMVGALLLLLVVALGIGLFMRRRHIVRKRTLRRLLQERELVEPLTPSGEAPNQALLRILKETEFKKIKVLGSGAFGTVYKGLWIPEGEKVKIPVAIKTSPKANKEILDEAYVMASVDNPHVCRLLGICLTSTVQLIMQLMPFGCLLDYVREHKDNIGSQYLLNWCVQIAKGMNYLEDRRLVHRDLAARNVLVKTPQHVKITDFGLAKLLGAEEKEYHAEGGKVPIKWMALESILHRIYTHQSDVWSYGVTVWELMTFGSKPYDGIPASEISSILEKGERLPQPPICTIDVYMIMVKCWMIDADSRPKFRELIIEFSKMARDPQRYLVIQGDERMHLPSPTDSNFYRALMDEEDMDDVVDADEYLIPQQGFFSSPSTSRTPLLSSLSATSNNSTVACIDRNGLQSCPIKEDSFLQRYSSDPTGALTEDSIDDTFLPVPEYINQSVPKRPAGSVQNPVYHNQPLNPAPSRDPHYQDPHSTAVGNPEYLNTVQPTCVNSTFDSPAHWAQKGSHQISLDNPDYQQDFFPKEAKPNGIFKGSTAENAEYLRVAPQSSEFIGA
Summary of the method: as §1

[5] = molecular target: Ba/F3 EGFR Del19/T790M/C797S mutants (Homo sapiens, UniProt P00533, T790M/C797S, cells depend on it, form not given); assay: CellTiter-Glo cell viability, Ba/F3 EGFR Del19/T790M/C797S cells; conditions: 72 hours, read-out: Ba/F3 EGFR mutant cell (IC50, nM) D/T/C
Summary of the method: as §1

Work on COc1cc(N2CCNCC2)ccc1Nc1ncc(Cl)c(Nc2cccc(OC)c2NS(C)(=O)=O)n1 [Example C6, N-(2-((5-chloro-2-((2-methoxy-4-(piperazin-1-yl)phenyl)amino)pyrimidin-4-yl)amino)-6-methoxyphenyl)methanesulfonamide] yielded a GI50 [1] of 596 nM, a GI50 [2] of 305 nM and a GI50 [3] of 106 nM. It also gave a GI50 (Ba/F3 EGFR Wild-type) of 626 nM, a GI50 [4] of 268 nM and a GI50 [5] of 222 nM.
CCc1cc(Nc2ncc(Br)c(Nc3cccc(OC)c3N(C)S(C)(=O)=O)n2)c(OC)cc1N1CCC(N2CCN(C)CC2)CC1 [Example C7, N-(2-((5-bromo-2-((5-ethyl-2-methoxy-4-(4-(4-methylpiperazin-1-yl)piperidin-1-yl)phenyl)amino)pyrimidin-4-yl)amino)-6-methoxyphenyl)-N-methylmethane sulfonamide] gave a GI50 [1] of 24 nM, a GI50 [2] of 52 nM and a GI50 [3] of 10 nM. The GI50 (Ba/F3 EGFR Wild-type) was 534 nM, the GI50 [4] was 6 nM and the GI50 [5] was 10 nM.
In the case of COc1cc(N2CCC(N3CCN(C)CC3)CC2)ccc1Nc1ncc(Cl)c(Nc2ccc3scnc3c2NS(C)(=O)=O)n1 [Example C8, N-(5-((5-chloro-2-((2-methoxy-4-(4-(4-methylpiperazin-1-yl)piperidin-1-yl)phenyl)amino)pyrimidin-4-yl)amino)benzo[d]thiazol-4-yl)methanesulfonamide], the GI50 [1] is reported as 308 nM, the GI50 [2] is reported as 316 nM and the GI50 [3] is reported as 210 nM. For the same molecule, the GI50 (Ba/F3 EGFR Wild-type) was 804 nM, the GI50 [4] was 94 nM and the GI50 [5] was 170 nM.
For COc1cc(N2CCC(N3CCN(C)CC3)CC2)ccc1Nc1ncc(Cl)c(Nc2ccc3c(c2NS(C)(=O)=O)OCCO3)n1 [Example C9, N-(6-((5-chloro-2-((2-methoxy-4-(4-(4-methylpiperazin-1-yl)piperidin-1-yl)phenyl)amino)pyrimidin-4-yl)amino)-2,3-dihydrobenzo[b][1,4]dioxin-5-yl)methanesulfonamide], the GI50 [1] was 356 nM, the GI50 [2] was 345 nM and the GI50 [3] was 281 nM. For the same molecule, the GI50 (Ba/F3 EGFR Wild-type) was 755 nM, the GI50 [4] was 152 nM and the GI50 [5] was 260 nM.
COc1cc(N2CCC(N3CCCC3)CC2)c(C)cc1Nc1ncc(Cl)c(Nc2cccc(OC)c2NS(C)(=O)=O)n1 [Example C10, N-(2-((5-chloro-2-((2-methoxy-5-methyl-4-(4-(pyrrolidin-1-yl)piperidin-1-yl)phenyl)amino)pyrimidin-4-yl)amino)-6-methoxyphenyl)methanesulfonamide] showed a GI50 [1] of 45 nM, a GI50 [2] of 61 nM and a GI50 [3] of 9 nM. The GI50 (Ba/F3 EGFR Wild-type) was 404 nM, the GI50 [4] was 6 nM and the GI50 [5] was 9 nM.
COc1ccc(Nc2nc(Nc3cc(C)c(N4CCC(N5CCCC5)CC4)cc3OC)ncc2Cl)c(NS(C)(=O)=O)c1 [Example C11, N-(2-((5-chloro-2-((2-methoxy-5-methyl-4-(4-(pyrrolidin-1-yl)piperidin-1-yl)phenyl)amino)pyrimidin-4-yl)amino)-5-methoxyphenyl)methanesulfonamide] was tested, and the GI50 [1] was 39 nM, the GI50 [2] was 45 nM and the GI50 [3] was 6 nM. For the same molecule, the GI50 (Ba/F3 EGFR Wild-type) was 458 nM, the GI50 [4] was 5 nM and the GI50 [5] was 9 nM.
Molecule CCCc1cc(Nc2ncc(Cl)c(Nc3ccc(OC)cc3NS(C)(=O)=O)n2)c(OC)cc1N1CCC(N(C)C)CC1 [Example C12, N-(2-((5-chloro-2-((4-(4-(dimethylamino)piperidin-1-yl)-2-methoxy-5-propylphenyl)amino)pyrimidin-4-yl)amino)-5-methoxyphenyl)methanesulfonamide] has a GI50 [1] of 29 nM, a GI50 [2] of 28 nM and a GI50 [3] of 6 nM. The GI50 (Ba/F3 EGFR Wild-type) was 731 nM, the GI50 [4] was 8 nM and the GI50 [5] was 9 nM.
CCCc1cc(Nc2ncc(Cl)c(Nc3ccc4c(c3NS(C)(=O)=O)OCCO4)n2)c(OC)cc1N1CCC(N(C)C)CC1 [Example C13, N-(6-((5-chloro-2-((4-(4-(dimethylamino)piperidin-1-yl)-2-methoxy-5-propylphenyl)amino)pyrimidin-4-yl)amino)-2,3-dihydrobenzo[b][1,4]dioxin-5-yl)methanesulfonamide] was tested, and the GI50 [1] was 52 nM, the GI50 [2] was 61 nM and the GI50 [3] was 23 nM. For the same molecule, the GI50 (Ba/F3 EGFR Wild-type) was 769 nM, the GI50 [4] was 20 nM and the GI50 [5] was 27 nM.
With CCc1cc(Nc2ncc(Cl)c(Nc3ccc(OC)cc3NS(C)(=O)=O)n2)c(OC)cc1N1CCC(N2CCOCC2)CC1 [Example C14, N-(2-((5-chloro-2-((5-ethyl-2-methoxy-4-(4-morpholinopiperidin-1-yl)phenyl)amino)pyrimidin-4-yl)amino)-5-methoxyphenyl) methanesulfonamide] the GI50 [1] was 21 nM, the GI50 [2] was 22 nM and the GI50 [3] was 4 nM. It also gave a GI50 (Ba/F3 EGFR Wild-type) of 415 nM, a GI50 [4] of 2 nM and a GI50 [5] of 4 nM.
Molecule CCc1cc(Nc2ncc(Cl)c(Nc3ccc4c(c3NS(C)(=O)=O)OCCO4)n2)c(OC)cc1N1CCC(N2CCOCC2)CC1 [Example C15, N-(6-((5-chloro-2-((5-ethyl-2-methoxy-4-(4-morpholinopiperidin-1-yl)phenyl)amino)pyrimidin-4-yl)amino)-2,3-dihydrobenzo[b][1,4]dioxin-5-yl)methanesulfonamide] has a GI50 [1] of 30 nM, a GI50 [2] of 44 nM and a GI50 [3] of 13 nM. For the same molecule, the GI50 (Ba/F3 EGFR Wild-type) was 638 nM, the GI50 [4] was 8 nM and the GI50 [5] was 14 nM.
Work on CCS(=O)(=O)Nc1c(Nc2nc(Nc3cc(C)c(N4CCC(N5CCN(C)CC5)CC4)cc3OC)ncc2Cl)cccc1OC [Example C16, N-(2-((5-chloro-2-((2-methoxy-5-methyl-4-(4-(4-methylpiperazin-1-yl)piperidin-1-yl)phenyl)amino)pyrimidin-4-yl)amino)-6-methoxyphenyl)ethanesulfonamide] yielded a GI50 [1] of 34 nM, a GI50 [2] of 51 nM and a GI50 [3] of 9 nM. For the same molecule, the GI50 (Ba/F3 EGFR Wild-type) was 486 nM, the GI50 [4] was 6 nM and the GI50 [5] was 10 nM.
For CCS(=O)(=O)Nc1cc(OC)ccc1Nc1nc(Nc2cc(C)c(N3CCC(N4CCN(C)CC4)CC3)cc2OC)ncc1Cl [Example C17, N-(2-((5-chloro-2-((2-methoxy-5-methyl-4-(4-(4-methylpiperazin-1-yl)piperidin-1-yl)phenyl)amino)pyrimidin-4-yl)amino)-5-methoxyphenyl)ethanesulfonamide], the GI50 [1] was 40 nM, the GI50 [2] was 52 nM and the GI50 [3] was 9 nM. For the same molecule, the GI50 (Ba/F3 EGFR Wild-type) was 655 nM, the GI50 [4] was 7 nM and the GI50 [5] was 14 nM.
CCc1cc(Nc2ncc(Cl)c(Nc3ccc(OC)c(OC)c3NS(C)(=O)=O)n2)c(OC)cc1N1CCC(N2CCOCC2)CC1 [Example C18, N-(6-((5-chloro-2-((5-ethyl-2-methoxy-4-(4-morpholinopiperidin-1-yl)phenyl)amino)pyrimidin-4-yl)amino)-2,3-dimethoxyphenyl)methanesulfonamide] gave a GI50 [1] of 194 nM, a GI50 [2] of 215 nM and a GI50 [3] of 55 nM. It also gave a GI50 (Ba/F3 EGFR Wild-type) of 835 nM, a GI50 [4] of 39 nM and a GI50 [5] of 54 nM.
CCCc1cc(Nc2ncc(Cl)c(Nc3cccc(OC)c3NS(C)(=O)=O)n2)c(OC)cc1N1CCC(N(C)C)CC1 [Example C19, N-(2-((5-chloro-2-((4-(4-(dimethylamino)piperidin-1-yl)-2-methoxy-5-propylphenyl)amino)pyrimidin-4-yl)amino)-6-methoxyphenyl)methanesulfonamide] showed a GI50 [1] of 54 nM, a GI50 [2] of 30 nM and a GI50 [3] of 12 nM. For the same molecule, the GI50 (Ba/F3 EGFR Wild-type) was 668 nM, the GI50 [4] was 9 nM and the GI50 [5] was 7 nM.
With CCc1cc(Nc2ncc(Cl)c(Nc3cccc(OC)c3NS(C)(=O)=O)n2)c(OC)cc1N1CCC(N2CCOCC2)CC1 [Example C20, N-(2-((5-chloro-2-((5-ethyl-2-methoxy-4-(4-morpholinopiperidin-1-yl)phenyl)amino)pyrimidin-4-yl)amino)-6-methoxyphenyl)methanesulfonamide] the GI50 [1] was 148 nM, the GI50 [2] was 87 nM and the GI50 [3] was 22 nM. It also gave a GI50 (Ba/F3 EGFR Wild-type) of 1160 nM, a GI50 [4] of 21 nM and a GI50 [5] of 21 nM.
COc1cc(N2CCC(N3CCN(C)CC3)CC2)c(C)cc1Nc1ncc(Br)c(Nc2cccc(OC)c2N(C)S(C)(=O)=O)n1 [Example C21, N-(2-((5-bromo-2-((2-methoxy-5-methyl-4-(4-(4-methylpiperazin-1-yl)piperidin-1-yl)phenyl)amino)pyrimidin-4-yl)amino)-6-methoxyphenyl)-N-methylmethanesulfonamide] gave a GI50 [1] of 49 nM, a GI50 [2] of 61 nM and a GI50 [3] of 10 nM. It also gave a GI50 (Ba/F3 EGFR Wild-type) of 660 nM, a GI50 [4] of 18 nM and a GI50 [5] of 13 nM.
CCc1cc(Nc2ncc(Br)c(Nc3cccc(OC)c3NS(C)(=O)=O)n2)c(OC)cc1N1CCC(N2CCN(C)CC2)CC1 [Example C22, N-(2-((5-bromo-2-((5-ethyl-2-methoxy-4-(4-(4-methylpiperazin-1-yl)piperidin-1-yl)phenyl)amino)pyrimidin-4-yl)amino)-6-methoxyphenyl)methanesulfonamide] gave a GI50 [1] of 25 nM, a GI50 [2] of 36 nM and a GI50 [3] of 5 nM. For the same molecule, the GI50 (Ba/F3 EGFR Wild-type) was 738 nM, the GI50 [4] was 4 nM and the GI50 [5] was 2 nM.
